Source: PubChem BioAssay (NCI)
Several values for one entry are separate records, joined by “and”; a condition that tells them apart may be missing. Equal entries are not always repeated.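 Briefly, cells in 96-well plates were exposed to five compound concentrations for 48 h, and endpoints were estimated by linear interpolation. At the GI50, growth is halved. Definition used: TGI = concentration required for complete inhibition of growth.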

Key:
Experiment in all cases: DTP human tumour cell line panel, 48 h
[1] = tested on: 786-0 renal
[2] = tested on: A498 renal
[3] = tested on: NCI-H226 lung
[4] = tested on: NCI-H23 lung
[5] = tested on: OVCAR-5 ovarian
[6] = tested on: SF-268 CNS
[7] = tested on: SF-295 CNS
[8] = tested on: SF-539 CNS
[9] = tested on: SW-620 colon
[10] = tested on: UO-31 renal

COc1cc(C(=O)/C=C/c2sc(Cl)nc2Cl)cc(OC)c1OC
GI50 [1]: 1.84 µM | TGI [1]: 3.42 µM | GI50 [2]: 7.62 µM | TGI [2]: 20.5 µM | GI50 [3]: 2.4 µM | TGI [3]: 6.31 µM | GI50 [4]: 1.64 µM | TGI [4]: 3.04 µM | GI50 [5]: 1.72 µM | TGI [5]: 3.27 µM | GI50 [6]: 1.79 µM | TGI [6]: 3.77 µM | GI50 [7]: 2.09 µM | TGI [7]: 4.71 µM | GI50 [8]: 1.72 µM | TGI [8]: 3.12 µM | GI50 [9]: 1.68 µM | TGI [9]: 3.45 µM | GI50 [10]: 1.44 µM | TGI [10]: 2.75 µM

Cc1cc(=O)[nH]c2cc3oc4ccccc4c3cc12
TGI [1]: > 81.8 µM | TGI [2]: > 100 µM | TGI [3]: > 100 µM | TGI [4]: > 100 µM | TGI [5]: > 100 µM | TGI [6]: > 93.7 µM | TGI [7]: > 100 µM | TGI [8]: > 100 µM | TGI [9]: > 100 µM | TGI [10]: > 100 µM

FC(F)(F)c1ccc(C2SCc3nc4ccccc4n32)cc1 (centres undefined)
TGI [1]: > 100 µM | TGI [2]: > 100 µM | TGI [3]: > 100 µM | TGI [4]: > 100 µM | TGI [5]: > 100 µM | TGI [6]: > 100 µM | TGI [7]: > 100 µM | TGI [8]: > 100 µM | TGI [9]: > 100 µM | TGI [10]: > 100 µM

CC1(C)OC(=O)C(=Cc2ccc(O)cc2)C(=O)O1
TGI [1]: > 100 µM | TGI [2]: > 100 µM | TGI [3]: > 100 µM | TGI [4]: > 100 µM | TGI [5]: > 100 µM | TGI [6]: > 100 µM | TGI [7]: > 100 µM | TGI [8]: > 100 µM | TGI [9]: > 100 µM | TGI [10]: > 100 µM

COc1cc2nc(-c3ccc(C(F)(F)F)cc3)cc(OCCCN3CCC(O)CC3)c2cc1OC
GI50 [1]: 4.72 µM | TGI [1]: 19.8 µM | GI50 [2]: 2.37 µM | TGI [2]: 10.3 µM | GI50 [3]: 1.59 µM | TGI [3]: 5.37 µM | GI50 [4]: 6.16 µM | TGI [4]: 21 µM | GI50 [5]: 3.14 µM | TGI [5]: 20.7 µM | GI50 [6]: 5.76 µM | TGI [6]: 24.7 µM | GI50 [7]: 1.61 µM | TGI [7]: 3.83 µM | GI50 [8]: 5.75 µM | TGI [8]: 20.8 µM | GI50 [9]: 3.53 µM | TGI [9]: 14.8 µM | GI50 [10]: 2.71 µM | TGI [10]: 14.6 µM

O=C1c2cccnc2-c2nc(-c3ccccc3[N+](=O)[O-])cc3c2c1nc1ccccc13
GI50 [1]: 14.7 µM | TGI [1]: 35.1 µM | GI50 [2]: > 77.3 µM | TGI [2]: > 100 µM | GI50 [3]: > 100 µM | TGI [3]: > 100 µM | GI50 [4]: 3.67 µM | TGI [4]: 18.9 µM | GI50 [5]: 6.99 µM | TGI [5]: 33.4 µM | GI50 [6]: 6.39 µM | TGI [6]: > 69.1 µM | GI50 [7]: 25.9 µM | TGI [7]: > 85.9 µM | GI50 [8]: 6.3 µM | TGI [8]: 24.3 µM | GI50 [9]: 3.27 µM | TGI [9]: 18.9 µM | GI50 [10]: 12.5 µM | TGI [10]: 32.5 µM

COc1cc2c(c(OC)c1O)C(=O)C(OC)C(c1ccc(O)c(O)c1)O2 (centres undefined)
GI50 [1]: 1.05 µM | TGI [1]: > 100 µM | GI50 [2]: 0.228 µM | TGI [2]: 0.812 µM | GI50 [3]: 4.8 µM | TGI [3]: > 100 µM | GI50 [4]: 0.385 µM | TGI [4]: > 100 µM | GI50 [5]: 2.27 µM | TGI [5]: > 100 µM | GI50 [6]: 1.5 µM | TGI [6]: > 100 µM | GI50 [7]: 0.471 µM | TGI [7]: 4.95 µM | GI50 [8]: 0.0798 µM | TGI [8]: 4.56 µM | GI50 [9]: 0.234 µM | TGI [9]: > 100 µM | GI50 [10]: 0.53 µM | TGI [10]: > 100 µM

O=c1cc(-c2cccc(O)c2)[nH]c2cc3c(cc12)OCO3
TGI [1]: > 69.9 µM | TGI [2]: > 100 µM | TGI [3]: 23.8 µM | TGI [4]: > 100 µM | TGI [5]: > 100 µM | TGI [6]: > 69.6 µM | TGI [7]: > 100 µM | TGI [8]: 4.39 µM | TGI [9]: > 100 µM | TGI [10]: > 100 µM

CCOC(=O)c1ncn2c1[nH]c(=S)c1ccccc12
TGI [1]: > 100 µM | TGI [2]: > 100 µM | TGI [3]: > 100 µM | TGI [4]: > 100 µM | TGI [5]: > 100 µM | TGI [6]: > 100 µM | TGI [7]: > 100 µM | TGI [8]: > 100 µM | TGI [9]: 62 µM | TGI [10]: > 100 µM

C[C@@H](CS(C)(=O)=O)Nc1ncc2cc(Oc3ccc(F)cc3F)c(=O)n(C)c2n1
GI50 [1]: > 25 µM | TGI [1]: > 25 µM | GI50 [2]: > 25 µM | TGI [2]: > 25 µM | GI50 [3]: > 25 µM | TGI [3]: > 25 µM | GI50 [4]: > 25 µM | TGI [4]: > 25 µM | GI50 [5]: > 25 µM | TGI [5]: > 25 µM | GI50 [6]: > 25 µM | TGI [6]: > 25 µM | GI50 [7]: > 25 µM | TGI [7]: > 25 µM | GI50 [8]: > 25 µM | TGI [8]: > 25 µM | GI50 [9]: > 25 µM | TGI [9]: > 25 µM | GI50 [10]: > 25 µM | TGI [10]: > 25 µM

C/C(CCn1[nH]c(=O)ccc1=O)=N\O
TGI [1]: > 100 µM | TGI [2]: > 100 µM | TGI [3]: > 100 µM | TGI [4]: > 100 µM | TGI [5]: > 100 µM | TGI [6]: > 100 µM | TGI [7]: > 100 µM | TGI [8]: > 100 µM | TGI [9]: > 100 µM | TGI [10]: > 100 µM

COc1ccc(NC(=O)c2cc(OC)cc(OC)c2)cc1
TGI [1]: > 100 µM | TGI [2]: > 100 µM | TGI [3]: > 100 µM | TGI [4]: > 100 µM | TGI [5]: > 100 µM | TGI [6]: > 100 µM | TGI [7]: > 64.5 µM | TGI [8]: > 70.3 µM | TGI [9]: > 100 µM | TGI [10]: > 100 µM

COc1ccc(-c2cc(-c3ccc(Nc4nc(Nc5ccccc5)nc(Nc5ccc(Cl)cc5)n4)cc3)nc(N)c2C#N)cc1
GI50 [1]: 1.05 µM | TGI [1]: 2.06 µM | GI50 [2]: 2.49 µM | TGI [2]: 11.1 µM | GI50 [3]: 1.08 µM | TGI [3]: 2.73 µM | GI50 [4]: 1.72 µM | TGI [4]: 13.6 µM | GI50 [5]: 1.13 µM | TGI [5]: 2.86 µM | GI50 [6]: 1.04 µM | TGI [6]: 2.49 µM | GI50 [7]: 1.54 µM | TGI [7]: 7.28 µM | GI50 [8]: 0.857 µM | TGI [8]: 1.77 µM | GI50 [9]: 1.04 µM | TGI [9]: 2.3 µM | GI50 [10]: 0.72 µM | TGI [10]: 1.49 µM

O=C(N/C(=C\c1cc(Cl)ccc1Cl)c1nc2[nH]c(=S)[nH]c(=O)c2[nH]1)c1ccccc1
TGI [1]: 32.2 µM | TGI [2]: > 100 µM | TGI [3]: > 100 µM | TGI [4]: > 65.8 µM | TGI [5]: > 100 µM | TGI [6]: > 100 µM | TGI [7]: > 100 µM | TGI [8]: > 76.7 µM | TGI [9]: 36.5 µM | TGI [10]: > 76.4 µM

CC1(C)COC(c2ccc(C(F)(F)F)cc2C(O)c2ccc3ccccc3c2)=N1 (centres undefined)
GI50 [1]: > 100 µM | TGI [1]: > 100 µM | GI50 [2]: > 100 µM | TGI [2]: > 100 µM | GI50 [3]: > 10 µM | TGI [3]: > 100 µM | GI50 [4]: > 10 µM | TGI [4]: > 100 µM | GI50 [5]: > 100 µM | TGI [5]: > 100 µM | GI50 [6]: > 10 µM | TGI [6]: > 100 µM | GI50 [7]: > 10 µM | TGI [7]: > 10 µM and 42.5 µM | TGI [8]: > 100 µM | GI50 [9]: > 100 µM | TGI [9]: > 100 µM | GI50 [10]: > 100 µM | TGI [10]: > 100 µM

O=C(O)CCSC(=O)Nc1cccc(F)c1
TGI [1]: > 100 µM | TGI [2]: > 100 µM | TGI [3]: > 100 µM | TGI [4]: > 100 µM | TGI [5]: > 100 µM | TGI [6]: > 100 µM | TGI [7]: > 100 µM | TGI [8]: > 100 µM | TGI [9]: > 100 µM | TGI [10]: > 100 µM
